# Source: PMC10499406 (Clinical and Translational Science, 2023)
# Like-named read-outs stand apart in the source and are kept apart here.
# Assays:
# [1] = tested on: IL‐1β; conditions: patients with atherosclerosis and residual inflammation ref 8; cited from earlier work
# [2] = tested on: CYP3A4
# [3] = Plasma PK of metabolite indacenyl amine after GDC‐2394; assay type: in vivo, human
# [4] = tested on: CYP3A4; test: clinical; conditions: human, in vivo
# [5] = 1‐hydroxymidazolam, day 10 vs day 1
# [6] = midazolam 5 mg alone (reference, day 1), analyte 1‐hydroxymidazolam, n 9
compound,measurement,setting,value
canakinumab: an anti‐IL‐1β antibody,frequency of cardiovascular events,[1],significantly reduced
OCc1ncc2n1-c1ccc(Cl)cc1C(c1ccccc1F)=NC2 [1‐hydroxymidazolam],AUC0–inf GMR,[2]; [5],90%
same,AUC0–last GMR,[2]; [5],88%
same,Cmax GMR,[2]; [5],92%
same,"AUC0–inf, geometric LS mean",[2]; [6],20.3 ng·h/mL
same,"AUC0–last, geometric LS mean",[2]; [6],18.8 ng·h/mL
same,"C max, geometric LS mean",[2]; [6],9.25 ng/mL
"Nc1c2c(cc3c1CCC3)CCC2 [indacenyl amine, 1,2,3,5,6,7‐hexahydro‐s‐indacen‐4‐amine]","day 7 predose indacenyl amine concentration, range",[3]; MAD 900‐mg b.i.d. cohort,65.8 to 158 ng/mL
same,half-life,"[3]; human, plasma, oral",36 to 49 h
"Cc1ncc2n1-c1ccc(Cl)cc1C(c1ccccc1F)=NC2 [Midazolam, midazolam, reference compound]",AUC0–inf GMR,"[2]; human, in vivo",97%
same,"AUC0–inf GMR (test/reference), estimate","[2]; human, in vivo",0.97
same,AUC0–last GMR,"[2]; human, in vivo",101%
same,"AUC0–last GMR (test/reference), estimate","[2]; human, in vivo",1.01
same,"C max GMR (test/reference), estimate","[2]; human, in vivo",1.12
same,Cmax GMR,"[2]; human, in vivo",112%
same,AUC(0-inf),[4],56 ng·h/mL
same,AUC(0-t),[4],53.8 ng·h/mL
same,Cmax,[4],25.6 ng/mL
same,AUC(0-inf),[4]; 5 mg,57.8 ng·h/mL
same,AUC(0-t),[4]; 5 mg,53.4 ng·h/mL
same,Cmax,[4]; 5 mg,22.9 ng/mL
